Columns and labels:
Staphylococcus Aureus = assay: Disc-diffusion agar method, antibacterial effect; conditions: for growth inhibition: 48 hours at 30° C.; for effect on growth: at the concentrations tested (0.5 μg and 2 μg)
Lactobacillus casei = assay: Disc-diffusion agar method, antibacterial effect; conditions: for growth inhibition: Lactobacillus casei, 48 hours at 30° C.; for effect on growth: lactobacillus Casei, at the concentrations tested (0.5 μg and 2 μg)
Bacillus Thuringiensis = assay: Disc-diffusion agar method, antibacterial effect; conditions: for area of inhibited bacterial growth / growth inhibition: 48 hours at 30° C.; for effect on growth: at the concentrations tested (0.5 μg and 2 μg)
Escherichia coli = assay: Disc-diffusion agar method, antibacterial effect; conditions: for growth inhibition: 48 hours at 30° C.; for effect on growth: at the concentrations tested (0.5 μg and 2 μg)
Candida albicans = Candida albicans biofilm formation with cannabidiol and/or lactobacillus Casei, crystal violet staining; assay type: cell-based; conditions: as compared to Candida albicans alone (row 4); incubation 24 hours
Protocol: A study is performed to evaluate the efficacy of a composition comprising cannabidiol and lactobacillus Casei in treating or preventing an infection by pathogenic microorganisms comprising Candida albicans, via preventing biofilm formation.
RPMI medium supplemented with 1% glucose is introduced into each well of a 24-well plate.
Candida albicans contacted with cannabidiol are added to each well of row 1.
Candida albicans contacted with lactobacillus Casei are added to each well of row 2.
Candida albicans contacted with cannabidiol and lactobacillus Casei are added to each well of row 3.
Candida albicans alone are added to each well of row 4.
After incubation for 24 hours, spent medium and free-floating fungi are removed by gentle aspiration and the wells washed twice with phosphate-buffered saline (PBS, pH 7.4).
The presence of biofilm is quantified by crystal violet staining as described above for Example 3.

Row | Compound | growth inhibition (Staphylococcus Aureus; 0.5 μg on disc) | growth inhibition (Staphylococcus Aureus; 2 μg on disc) | effect on growth (Staphylococcus Aureus) | growth inhibition (Lactobacillus casei; 0.5 μg on disc) | growth inhibition (Lactobacillus casei; 2 μg on disc) | effect on growth (Lactobacillus casei) | area of inhibited bacterial growth (Bacillus Thuringiensis; 0.5 μg on disc) | growth inhibition (Bacillus Thuringiensis; 0.5 μg on disc) | area of inhibited bacterial growth (Bacillus Thuringiensis; 2 μg on disc) | growth inhibition (Bacillus Thuringiensis; 2 μg on disc) | effect on growth (Bacillus Thuringiensis) | growth inhibition (Escherichia coli; 0.5 μg on disc) | growth inhibition (Escherichia coli; 2 μg on disc) | effect on growth (Escherichia coli) | biofilm formation (Candida albicans)
1 | C=C(C)[C@@H]1CCC(C)=C[C@H]1c1c(O)cc(CCCCC)cc1O [CBD, cannabidiol] | − | − | no effect | − | − | no effect | 2 mm | + | 3 mm | + | inhibit growth | − | − | no effect | significantly inhibited
2 | CCCCCc1cc(O)c2c(c1)OC(C)(C)[C@@H]1CCC(C)=C[C@@H]21 [THC, tetrahydrocannabiniol] | − | − | no effect | − | − | no effect | 1 mm | + | < 1 mm | + | inhibit growth | − | − | no effect | 

Source: patent US20220362312A1, “CANNABIDIOL-ENHANCED PROBIOTIC COMPOSITIONS AND USES THEREOF FOR TREATMENT OF INFECTIONS” (BUZZELET DEVELOPMENT AND TECHNOLOGIES LTD., priority 2019, published 2022)
